Key:
[1] = molecular target: T1, human ALK5 (kinase domain, ALK5 T204D) (Homo sapiens, UniProt P36897, T204D); experiment: ALK5 kinase activity, [33P] phosphate incorporation into casein; type: biochemical; conditions: casein substrate
T1 construct: The kinase domain of human ALK5 (amino acids 200-503); made in house; host or cells: insect cells (baculovirus expression)
T1 sequence (P36897 200-503 T204D): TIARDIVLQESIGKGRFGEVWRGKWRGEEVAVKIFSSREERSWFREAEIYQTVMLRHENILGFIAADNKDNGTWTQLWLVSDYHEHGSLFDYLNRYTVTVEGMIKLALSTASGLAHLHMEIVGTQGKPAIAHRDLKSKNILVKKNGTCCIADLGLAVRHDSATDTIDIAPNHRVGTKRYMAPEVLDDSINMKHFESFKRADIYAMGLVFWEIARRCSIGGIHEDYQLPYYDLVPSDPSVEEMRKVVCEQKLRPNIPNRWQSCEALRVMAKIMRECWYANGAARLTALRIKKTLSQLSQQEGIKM
Protocol: The kinase activity of ALK5 is assessed by measuring radiolabelled phosphate [33P] incorporation in to the generic substrate, casein. The kinase domain of human ALK5 (amino acids 200-503) is fused to an N-terminal histidine tag. The kinase activity of ALK5 is rendered constitutive via point mutation at amino acid 204 (threonine to aspartate modification, ALK5 T204D) and the kinase construct is engineered to be expressed from a baculovirus expression construct in insect cells. The purified, recombinantly-expressed histidine-tagged ALK5 T204D protein is dissolved at 5.4 mg/ml in 50 mM Tris-HCl pH 8.0, 150 mM NaCl, 5 mM DTT. ALK5 T204D is dissolved to 2.5 μg/ml in assay buffer (Assay buffer: 20 mM Tris-HCl pH 7.4, 10 mM MgCl2, 2 mM MnCl2) on the day of use.
Test compounds and reference compounds are dissolved in assay buffer without DTT containing 5% (v/v) DMSO. Stock solutions of test and reference compounds are diluted in assay buffer with DTT (1.25 mM) containing 4.5% (v/v) DMSO. 10 μl of test or reference compound are added to the appropriate wells of 96 well U-bottomed plate. Total enzyme activity is determined by measuring ALK5 T204D activity in the absence of ALK5 kinase inhibitor reference compounds. Non-specific binding (NSB) is determined by measuring the activity of ALK5 T204D in the presence of ALK5 kinase inhibitor reference compounds. 10 μl of dephosphorylated casein stock solution (dephosphorylated casein is dissolved in ddH2O at 20 mg/ml) is added per well (200 μg/well final assay concentration). 20 μl of ALK5 T204D (2.5 μg/ml solution) is added per well (50 ng/well final assay concentration). The plates are left to incubate at room temperature for 10 minutes.
10 μl of ATP mix is added to the well to initiate the reaction (0.66 nM [^33P]ATP/1 μM unlabelled ATP/well final assay concentration). The ATP mix is prepared as follows, unlabelled ATP (3 mM) is dissolved in ddH2O and pH adjusted to 7.4. The stock concentration of [^33P]ATP is 10 μCi/μl. The appropriate volume of [^33P]ATP is added to unlabelled ATP solution such that the final assay concentration per well is 0.1 μCi. Following addition of the ATP mix, the plates are incubated at room temperature for 50 minutes. The kinase reaction is terminated by the addition of 50 μL Stop Buffer (20 mM Tris-HCl pH 7.4, 10 mM EDTA).
75 μl/well from the reaction plate is transferred to a Multiscreen-IP plate (MultiScreen-IP plates are prepared by added 50 μL of 70% (v/v) ethanol per well and incubated for 5 minutes at room temperature. The ethanol is removed by aspiration via a MultiScreen HTS Vaccum Manifold unit (Millipore, Cat no: MSVMHT500). The plates are washed twice by adding 200 μl/well ddH2O). The MultiScreen-IP plate is incubated at room temperature for 30 minutes to allowing binding of casein to the plate. The MultiScreen-IP plates are washed three times by adding 200 μl/well 100 mM phosphoric acid solution and the gasket is carefully removed from the back of the MultiScreen-IP plate and the plate dried in the oven for 30 minutes. The MultiScreen-IP plate is backsealed, 50 μL of MICROSCINT™20 is added, then the plates are topsealed and radiolabelled casein detected and quantified on a TOPCOUNT™ plate-reader using the ^33P scintillation protocol.

[2] = tested on: dimethylnitrosamine induced liver fibrosis; conditions: rat, cited from earlier work
[3] = tested on: bleomycin-induced pulmonary fibrosis; conditions: bleomycin-treated rats; cited from earlier work
[4] = given therapeutically, dimethylnitrosamine induced liver fibrosis

Cc1ccn(-c2cc(-n3cnc4ccc(NC5CCCC(O)C5)nc43)ccn2)n1 (stereo not drawn) [Example 1.13, (1SR,3RS)-3-{3-[2-(3-Methyl-pyrazol-1-yl)pyridine-4-yl]-3H-imidzo[4,5-b]pyridin-5-ylamino}-cyclohexanol]
IC50 [1]: 38 nM

O[C@H]1CCC[C@@H](Nc2ccc3ncn(-c4ccnc(-n5cccn5)c4)c3n2)C1 (racemic) [Example 1.17, (1SR,3RS)-3-[3-(2-Pyrazol-1-yl-pyridine-4-yl)-3H-imidazo[4,5-b]pyridin-5-ylamino]-cyclohexanol]
IC50 [1]: 56 nM

c1ccc(-c2cc(-c3cn[nH]c3-c3ccccn3)ccn2)cc1 [GW6604]
side effects ([2]; 3 weeks treatment): no obvious side effects | inhibition of extracellular matrix deposition [2, 4]: 60% | prevention of death rate [2, 4]: 40%

OC1CCC(Nc2ccc3ncn(-c4ccnc(-c5ccoc5)c4)c3n2)CC1 (stereo not shown) [Example 1.1, 4-[3-(2-Furan-3-yl-pyridin-4-yl)-3H-imidazo[4,5-b]pyridin-5-ylamino]-cyclohexanol]
IC50 [1]: 13 nM

O[C@H]1CCC[C@H](Nc2ccc3ncn(-c4ccnc(-c5ccc(F)cc5)c4)c3n2)C1 (racemic) [Example 1.9, (1SR, 3SR)-3-{3-[2-(4-Fluorophenyl)-pyridin-4-yl)-3H-imidazo[4,5-b]pyridin-5-ylamino}-cyclohexanol]
IC50 [1]: 318 nM

O[C@H]1CCC[C@@H](Nc2ccc3ncn(-c4ccnc(-c5ccoc5)c4)c3n2)C1 (racemic) [Example 1.5, (1SR, 3RS)-3-[3-(2-Furan-3-yl-pyridin-4-yl)-3H-imidazo[4,5-b]pyridin-5-ylamino]-cyclohexanol]
IC50 [1]: 6 nM

B1: follistatin: an antagonist of activin signalling (protein, UniProt P19883 30-344, looked up)
Follistatin: GNCWLRQAKNGRCQVLYKTELSKEECCSTGRLSTSWTEEDVNDNTLFKWMIFNGGAPNCIPCKETCENVDCGPGKKCRMNKKNKPRCVCAPDCSNITWKGPVCGLDGKTYRNECALLKARCKEQPELEVQYQGRCKKTCRDVFCPGSSTCVVDQTNNAYCVTCNRICPEPASSEQYLCGNDGVTYSSACHLRKATCLLGRSIGLAYEGKCIKAKSCEDIQCTGGKKCLWDFKVGRGRCSLCDELCPDSKSDEPVCASDNATYASECAMKEAACSSGVLLEVKHSGSCNSISEDTEEEEEDEDQDYSFPISSILEW
lung fibrosis [3]: attenuated lung fibrosis | number of macrophages and neutrophils in bronchoalveolar lavage [3]: significantly reduced

— patent publication US9079897B2, “Imidazo-pyridine derivatives as activin-like receptor kinase (ALK4 or ALK5) inhibitors” (NOVARTIS AG, priority 2008, dated 2015)
